Measurements: patent publication US7029863B2, “Cell culture system for determining the cholesterol efflux potential for serum” (The Children's Hospital of Philadelphia, priority 2001, dated 2006)

Experiments:
Format in all cases: cell-based
[1] = tested on: J774 mouse macrophages treated with cAMP to upregulate the expression of ABCA1; assay: Cell cholesterol efflux to supplemented human serum, J774 macrophages with ABCA1 upregulated by cAMP; details: human serum supplemented with increasing levels of the substance; 4 hour incubation; FIG. 1B
Experimental: FIG. 1B is a graph of the percentage of efflux of cell cholesterol after a four hour incubation period of J774 mouse macrophages treated with cAMP to upregulate the expression of ABCA1 with serum supplemented with HDL3 and serum supplemented with Apo AI. Numbers on X axis represent the fold increase of HDL3 or Apo AI with the X axis of 1 being the unsupplemented serum.
For example, in one embodiment of the present invention, an assay to quantitate the contribution of ABCA1 to cellular cholesterol efflux uses a sample of cells, such as transformed mouse macrophages which are grown in monolayers and prelabeled with ^3H-cholesterol. […] The release of the radiolabeled cholesterol is determined after an appropriate incubation time ranging from 1 to 12 hours. The ABCA1 contribution to efflux is determined by subtracting the efflux obtained in ABCA1 negative cultures from that obtained from the ABCA1 positive cultures.
FIGS. 1A–1F illustrate that the expression of SR-BI and ABCA1 independently in cultured cells can be used to detect cell cholesterol efflux to human sera with different levels of apolipoprotein AI, high density lipoprotein (HDL) or high density lipoprotein3 (HDL3). […] The control and supplemented serum samples were then diluted in tissue culture medium and incubated with the indicated cell systems; the efflux of cell cholesterol was measured after a 4 hour incubation period. […]

[2] = tested on: W138VA13 human embryonic lung fibroblasts; assay: Cell cholesterol efflux to supplemented human serum, untreated W138VA13 fibroblasts; details: human serum supplemented with increasing levels of the substance; 4 hour incubation; low SR-BI and ABCA1 expression; FIG. 1C
Experimental: FIG. 1C is a graph of the percentage of efflux of cell cholesterol after a four hour incubation period of W138VA13 human embryonic lung fibroblasts with serum supplemented with HDL3 and serum supplemented with Apo AI. Numbers on X axis represent the fold increase of HDL3 or Apo AI with the X axis of 1 being the unsupplemented serum.
(§1) FIGS. 1A–1F illustrate that the expression of SR-BI and ABCA1 independently in cultured cells can be used to detect cell cholesterol efflux to human sera with different levels of apolipoprotein AI, high density lipoprotein (HDL) or high density lipoprotein3 (HDL3). […] The control and supplemented serum samples were then diluted in tissue culture medium and incubated with the indicated cell systems; the efflux of cell cholesterol was measured after a 4 hour incubation period.
FIG. 1C is a graph of the percentage of efflux of cell cholesterol after a four hour incubation period of W138VA13 human embryonic lung fibroblasts with serum supplemented with HDL3 and serum supplemented with Apo AI. FIG. 1C illustrates that W138VA13 human embryonic lung fibroblasts have low expression levels of both proteins and cell cholesterol efflux is unresponsive to either type of serum supplementation.

[3] = tested on: W138VA13 human embryonic lung fibroblasts pretreated with 9-cis retanoic acid (9CRA) and 22 hydroxycholesterol to upregulated ABCA1; assay: Cell cholesterol efflux to supplemented human serum, W138VA13 fibroblasts with ABCA1 upregulated; details: human serum supplemented with increasing levels of the substance; 4 hour incubation; FIG. 1E
Experimental: (§2) Numbers on X axis represent the fold increase of HDL3 or Apo AI with the X axis of 1 being the unsupplemented serum.
as §1

[4] = tested on: W138VA13 human embryonic lung fibroblasts transfected with SR-BI with ABCA1 upregulated; assay: Cell cholesterol efflux to supplemented human serum, W138VA13 fibroblasts with SR-BI transfected and ABCA1 upregulated; details: human serum supplemented with increasing levels of the substance; 4 hour incubation; FIG. 1F
Experimental: as §2, §1

Apo AI: apolipoprotein AI added to human serum in increasing levels
percentage of efflux of cell cholesterol [1]: enhanced cholesterol efflux
percentage of efflux of cell cholesterol [2]: unresponsive
percentage of efflux of cell cholesterol [3]: enhanced
efflux of cell cholesterol [4]: enhanced efflux
